Measurements reported in US10472635B2, “Methods of treating brain edema” (priority 2015, dated 2019).

Experiments:
VRAC = conditions: cited from earlier work
SLC26A11 = biological target: T1, SLC26A11 (Homo sapiens, UniProt Q86WA9); conditions: cited from earlier work
T1 sequence (Q86WA9 1-606): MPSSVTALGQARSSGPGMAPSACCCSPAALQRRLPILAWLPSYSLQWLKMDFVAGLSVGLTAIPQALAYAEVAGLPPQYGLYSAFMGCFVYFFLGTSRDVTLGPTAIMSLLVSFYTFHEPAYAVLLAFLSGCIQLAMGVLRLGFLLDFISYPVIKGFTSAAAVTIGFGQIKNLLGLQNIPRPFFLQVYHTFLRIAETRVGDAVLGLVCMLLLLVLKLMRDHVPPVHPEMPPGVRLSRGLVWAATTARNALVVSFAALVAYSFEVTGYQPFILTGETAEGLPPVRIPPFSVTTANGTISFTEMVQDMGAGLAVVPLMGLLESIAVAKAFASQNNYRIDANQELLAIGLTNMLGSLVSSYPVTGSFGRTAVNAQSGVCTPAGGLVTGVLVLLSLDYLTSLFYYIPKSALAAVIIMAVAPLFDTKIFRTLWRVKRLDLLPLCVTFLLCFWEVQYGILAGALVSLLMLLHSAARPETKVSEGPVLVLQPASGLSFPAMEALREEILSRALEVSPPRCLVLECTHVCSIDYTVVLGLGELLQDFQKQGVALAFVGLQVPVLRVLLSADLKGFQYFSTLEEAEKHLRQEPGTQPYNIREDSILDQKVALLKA

[1] = system: cortical neurons in brain slices; assay: Neuronal swelling imaging assay in brain slices (cross sectional area of CoroNa-stained soma, two-photon); format: cell-based, rat
[2] = system: voltage-dependent Cl^− current in layer 4 cortical neurons; assay: Whole-cell voltage clamp of depolarization-activated Cl- current; format: cell-based, rat; conditions: depolarization to −20 mV or greater; cocktail of channel blockers; GlyH-101 by dialysis
Description: Electrophysiology: Whole-cell recordings were performed in the presence of antagonists of GABAA (10 μM picrotoxin), AMPA/kainite (10 μM 6-cyano-7-nitoquinoxaline-2,3-dione—CNQX), and NMDA (2R-amino-5-phosphonovaleric acid—APV) receptors. 60 μM cadmium, 50 μM nickel and 100 μM 4AP (4-aminopyridine) were used to block voltage-gated calcium channels and A-type potassium channels. Whole-cell voltage-clamp recordings from cortical neurons were carried out at room temperature while the recording chamber was perfused with ACSF at 1-1.5 ml min-1. Recordings were made using a MultiClamp 700B amplifier controlled by Clampex 10.2 via a Digidata 1440A data acquisition system with 3-5M ? glass electrodes. The pipette solution containing (in m ? ): 108 CsCl, 8 TEA-Cl, 8 NaGluc, 1 CsEGTA, 4 K-ATP, 0.3 Na-GTP, 10 Hepes, 2MgCl2 (pH 7.2 with CsOH, 286 mosmol 1-1). Normal ACSF contained (in mM): 126 NaCl, 26 NaHCO3, 10 glucose, 2 MgCl2, 1.25 NaH2PO4, 2.5 KCl, 2.0 CaCl2 (pH 7.25, 310 mosmol 1-1). NaCl was replaced with 126 mM Na-isethionate in the low-chloride ACSF. Recordings where the series resistance varied more than 10% were rejected. Data were analyzed with Clampfit 10.0.
The opening of Na^+ permeable channels causes both [Na^+]i accumulation and neuronal depolarization. […] However progressive accumulation of extracellular K^+ could lead to further depolarization of the membrane. […]

rat hippocampal slices = assay: LDH release cell death assay in hippocampal slices; format: cell-based
Maxi-Anion Channel = conditions: cited from earlier work
SLC4-A3, A8, A10 = conditions: cited from earlier work
[3] = system: neuronal [Na^+]i in brain slices; assay: Neuronal [Na+]i by CoroNa Green fluorescence / two-photon FLIM; format: cell-based, rat; conditions: CoroNa signal; TTX 1 μM; DIDS 250 μM

O=S(=O)(O)c1cc(N=C=S)ccc1C=Cc1ccc(N=C=S)cc1S(=O)(=O)O [DIDS]
concentration (antagonist sensitivity of channel/transporter) (VRAC): 100 to 400 µM | concentration (antagonist sensitivity of channel/transporter) (SLC26A11): 0.5 to 1 mM | effect on veratridine-induced neuronal swelling ([1]; 22-24 °C, antagonist bath applied and in puffing pipette, DIDS 250 μM, NPPB 200 μM, TTX 1 μM): reduced the swelling | effect on veratridine-stimulated neuronal swelling at 37 °C ([1]; 37 °C, Calcein green-AM): block | effect on NMDA-induced neuronal swelling ([1]; DIDS 250 μM, 500 μM, 1 mM, d-APV 100 μM): blocked NMDA-evoked neuronal swelling in a dose-dependent manner | effect on non-inactivating Cl- current elicited by depolarization [2]: blocked | effect on veratridine-induced cell death (LDH release) (rat hippocampal slices; 50 μM veratridine): prevented cell death | effect on NMDA-induced cell death (LDH release), Ca2+-independent (rat hippocampal slices; NMDA in Ca2+ free extracellular solution): blocked | effect on NMDA-induced cell death (LDH release), Ca2+-dependent (rat hippocampal slices; NMDA with extracellular Ca2+ present, reduced extracellular Na+): not blocked | concentration (antagonist sensitivity of channel/transporter) (Maxi-Anion Channel): 100 µM | concentration (antagonist sensitivity of channel/transporter) (SLC4-A3, A8, A10): 0.1 to 0.5 mM | effect on veratridine-induced [Na+]i increase [3]: not affected
